≈ marks a conversion by molar mass, not a printed value. Numbered stars: 1 amine (or outer) side, 2 acyl side, 3 side chain; on linkers, the order of the positions; unused ones are H or OH. Square brackets hold non-standard residues; d marks the D form. Peptide text beside a SMILES is read from it. X5 = C=C(N[*:1])c1nc(-c2nc(C(=O)[*:2])ccc2-c2nccs2)co1; X1 = CCC(C)CCCCCCCCCCC[C@H](N[*:1])C(=O)[*:2]; X7 = CC(C)CCCCCCCCCCC[C@H](N[*:1])C(=O)[*:2]; X2 = CCC(C)CCCCCCCCC[C@H](N[*:1])C(=O)[*:2]; X6 = CC(C)CCCCCCCCCC[C@H](N[*:1])C(=O)[*:2]; X8 = CCCCCCCCCCCCCC[C@H](N[*:1])C(=O)[*:2]; Gly(Dodecyl) = CCCCCCCCCCCC[C@H](N)C(=O)O; X3 = C/C=C(\N[*:1])c1nc(C(=O)[*:2])co1; X4 = C=C(N[*:1])c1nc(C(=O)[*:2])c(C)o1; NMeY = CN[C@@H](Cc1ccc(O)cc1)C(=O)O; Val(3-OH) = CC(C)(O)[C@H](N)C(=O)O; Dha = C=C(N)C(=O)O
Columns and labels:
[1] = Inhibition rat liver microsome ACAT; format: microsomes
SW480 = assay: Cytotoxicity against human SW480 cells assessed as reduction in cell viability incubated for 24 hrs by MTT assay; format: functional, cell-based; conditions: SW480, 24 h
MCF7 = assay: Cytotoxicity against human MCF7 cells assessed as reduction in cell viability incubated for 24 hrs by MTT assay; format: functional, cell-based; conditions: MCF7, 24 h
HL-60 = assay: Cytotoxicity against human HL-60 cells assessed as reduction in cell viability incubated for 24 hrs by MTT assay; format: functional, cell-based; conditions: HL-60, 24 h
Aspergillus fumigatus = assay: Antifungal activity against Aspergillus fumigatus ATCC 46645 assessed as fungal growth inhibition incubated for 24 hrs by CLSI protocol based broth microdilution method; format: functional, organism-based; conditions: ATCC 46645, 24 h
Influenza A virus = assay: Antiviral activity against Influenza A virus H9N2 infected in MDCK cells assessed as inhibition of viral replication; format: functional, organism-based
Aspergillus niger = assay: Antifungal activity against Aspergillus niger assessed as fungal growth inhibition; format: functional
Human alphaherpesvirus 1 = assay: Antiviral activity against HSV-1 infected in African green monkey Vero cells by plaque reduction assay; format: functional, organism-based; conditions: Human alphaherpesvirus 1, Vero
Trypanosoma cruzi = assay: Antitrypanosomal activity against Trypanosoma cruzi amastigote assessed as parasite growth inhibition incubated for 24 hrs by light microscopic analysis; format: functional, organism-based
Plasmodium falciparum = assay: Antiplasmodial activity against Plasmodium falciparum 3D7 assessed as reduction in parasite growth incubated for 72 hrs by SYBR Green dye based fluorescence assay; format: functional, organism-based; conditions: 3D7, 72 h

Structure (SMILES): CC(C)[C@H]1OC(=O)[C@H](Cc2ccccc2)N(C)C(=O)[C@@H](C(C)C)OC(=O)[C@H](Cc2ccccc2)N(C)C(=O)[C@@H](C(C)C)OC(=O)[C@H](Cc2ccccc2)N(C)C1=O
- IC50 [1]: 3 µM

Structure (SMILES): CC[C@H](C)[C@@H]1NC(=O)[C@@H]2[C@H](C)CCN2C(=O)[C@H](C[C@H](O)CCl)OC(=O)CCNC(=O)[C@@H](C)N(C)C(=O)[C@H]([C@@H](C)CC)N(C)C1=O
- IC50 (SW480): 0.107 µM
- IC50 (MCF7): 0.079 µM
- IC50 (HL-60): 0.149 µM

Structure (SMILES): CCCCCCC/C=C/C=C/C=C/[C@H](C[C@H](O)C[C@H]1NC(=O)[C@H](C[C@H](O)CO)NC(=O)[C@@H](CC(N)=O)NC(=O)[C@H](C[C@H](O)CO)NC(=O)[C@H](C)CNC(=O)[C@H]1O)OC
- IC50 (Aspergillus fumigatus): 4 µM

Structure (SMILES): C=C(NC(=O)c1nc(C(=C)NC(=O)[C@@H](NC(=O)C(=C)NC(=O)c2coc(/C(=C/C)NC(=O)[C@@H](NC(C)=O)[C@@H](C)O)n2)C(C)C)oc1C)C(=O)NC(=C)c1nc(-c2nc(C(N)=O)ccc2-c2nccs2)co1
- IC50 (Influenza A virus): 28.7 µM

Structure (SMILES): CCCCCCC/C=C/C=C/C=C/[C@H](C[C@H](O)C[C@@H]1CC(=O)NC[C@@H](C)C(=O)N[C@@H](C[C@H](O)CO)C(=O)N[C@H](CC(N)=O)C(=O)N[C@@H](C[C@H](O)CO)C(=O)N1)OC
- IC50 (Aspergillus fumigatus): 4 µM

Structure (SMILES): CCCCCCC/C=C/C=C/C=C/[C@H](C[C@H](O)C[C@H]1NC(=O)[C@H](C[C@H](O)CO)NC(=O)[C@@H](CC(N)=O)NC(=O)[C@H](CC(N)=O)NC(=O)[C@H](C)CNC(=O)[C@H]1O)OC
- IC50 (Aspergillus fumigatus): 4 µM

Structure (SMILES): CCCCCCC/C=C/C=C/C=C/[C@H](C[C@H](O)C[C@@H]1CC(=O)NC[C@@H](C)C(=O)N[C@@H](CC(N)=O)C(=O)N[C@H](CC(N)=O)C(=O)N[C@@H](C[C@H](O)CO)C(=O)N1)OC
- IC50 (Aspergillus fumigatus): 4 µM

Structure (SMILES): CCCCCCC/C=C/C=C/C=C/[C@H](C[C@H](O)C[C@H]1NC(=O)[C@H](C[C@H](O)C(C)O)NC(=O)[C@@H](CC(N)=O)NC(=O)[C@H](CC(N)=O)NC(=O)[C@H](C)CNC(=O)[C@H]1O)OC (some centres not stated)
- IC50 (Aspergillus fumigatus): 4 µM

Structure (SMILES): C=C(NC(=O)C(=C)NC(=O)c1ccc(-c2nccs2)c(-c2coc(C(=C)NC(=O)C(=C)NC(=O)c3nc(C(=C)NC(=O)[C@@H](NC(=O)C(=C)NC(=O)c4coc(/C(=C/C)NC(=O)[C@@H](NC(C)=O)[C@@H](C)O)n4)C(C)C)oc3C)n2)n1)C(N)=O (Ac-T[X3][Dha]V[X4][Dha][X5][Dha][Dha]-NH2)
- IC50 (Influenza A virus): 18.3 µM

Structure (SMILES): C=C(NC(=O)c1ccc(-c2nccs2)c(-c2coc(C(=C)NC(=O)C(=C)NC(=O)c3nc(C(=C)NC(=O)[C@@H](NC(=O)C(=C)NC(=O)c4coc(/C(=C/C)NC(=O)[C@@H](NC(C)=O)[C@@H](C)O)n4)C(C)(C)O)oc3C)n2)n1)C(N)=O (Ac-T[X3][Dha][Val(3-OH)][X4][Dha][X5][Dha]-NH2)
- IC50 (Influenza A virus): 7.3 µM

Structure (SMILES): C=C(NC(=O)C(=C)NC(=O)c1ccc(-c2nccs2)c(-c2coc(C(=C)NC(=O)C(=C)NC(=O)c3nc(C(=C)NC(=O)[C@@H](NC(=O)C(=C)NC(=O)c4coc(/C(=C/C)NC(=O)[C@@H](NC(C)=O)[C@@H](C)O)n4)C(C)(C)O)oc3C)n2)n1)C(N)=O (Ac-T[X3][Dha][Val(3-OH)][X4][Dha][X5][Dha][Dha]-NH2)
- IC50 (Influenza A virus): 15.3 µM

Structure (SMILES): CCCCCCCCCCCC[C@@H]1NC(=O)[C@@H]2CCCN2C(=O)[C@H](CCC(N)=O)NC(=O)[C@H](CC(N)=O)NC(=O)[C@H](CO)NC(=O)[C@H](CC(N)=O)NC(=O)[C@H](Cc2ccc(O)cc2)NC(=O)[C@H](CC(N)=O)NC1=O (cyclo(NQP[Gly(Dodecyl)]NYNS))
- MIC (Aspergillus niger): 3.12 µg/mL (≈ 2.99 µM)

Structure (SMILES): CCC(C)CCCCCCCCCCC[C@@H]1NC(=O)[C@@H]2CCCN2C(=O)[C@H](CCC(N)=O)NC(=O)[C@H](CC(N)=O)NC(=O)[C@H](CO)NC(=O)[C@H](CC(N)=O)NC(=O)[C@H](Cc2ccc(O)cc2)NC(=O)[C@H](CC(N)=O)NC1=O (some centres not stated) (cyclo(NQP[X1]NYNS))
- MIC (Aspergillus niger): 3.12 µg/mL (≈ 2.87 µM)

Structure (SMILES): CCC(C)CCCCCCCCC[C@@H]1NC(=O)[C@@H]2CCCN2C(=O)[C@H](CCC(N)=O)NC(=O)[C@H](CC(N)=O)NC(=O)[C@H](CO)NC(=O)[C@H](CC(N)=O)NC(=O)[C@H](Cc2ccc(O)cc2)NC(=O)[C@H](CC(N)=O)NC1=O (some centres not stated) (cyclo(NQP[X2]NYNS))
- MIC (Aspergillus niger): 3.12 µg/mL (≈ 2.95 µM)

Structure (SMILES): CC(C)CCCCCCCCCC[C@@H]1NC(=O)[C@@H]2CCCN2C(=O)[C@H](CCC(N)=O)NC(=O)[C@H](CC(N)=O)NC(=O)[C@H](CO)NC(=O)[C@H](CC(N)=O)NC(=O)[C@H](Cc2ccc(O)cc2)NC(=O)[C@H](CC(N)=O)NC1=O (cyclo(NQP[X6]NYNS))
- MIC (Aspergillus niger): 3.12 µg/mL (≈ 2.95 µM)

Structure (SMILES): CC(C)CCCCCCCCCCC[C@@H]1NC(=O)[C@@H]2CCCN2C(=O)[C@H](CCC(N)=O)NC(=O)[C@H](CC(N)=O)NC(=O)[C@H](CO)NC(=O)[C@H](CC(N)=O)NC(=O)[C@H](Cc2ccc(O)cc2)NC(=O)[C@H](CC(N)=O)NC1=O (cyclo(NQP[X7]NYNS))
- MIC (Aspergillus niger): 3.12 µg/mL (≈ 2.91 µM)

Structure (SMILES): CCCCCCCCCCCCCC[C@@H]1NC(=O)[C@@H]2CCCN2C(=O)[C@H](CCC(N)=O)NC(=O)[C@H](CC(N)=O)NC(=O)[C@H](CO)NC(=O)[C@H](CC(N)=O)NC(=O)[C@H](Cc2ccc(O)cc2)NC(=O)[C@H](CC(N)=O)NC1=O (cyclo(NQP[X8]NYNS))
- MIC (Aspergillus niger): 3.12 µg/mL (≈ 2.91 µM)

Structure (SMILES): COc1ccc(C[C@@H]2NC(=O)[C@@H]3CCCN3C(=O)[C@H](C(C)C)NC(=O)[C@H](Cc3ccc(O)cc3)N(C)C(=O)[C@H](Cc3ccc(OC)cc3)NC2=O)cc1 (cyclo([NMeY]VPY(Me)Y(Me)))
- IC50 (Human alphaherpesvirus 1): 9.5 µM

Structure (SMILES): COc1ccc2c3c([nH]c2c1)[C@H](C=C(C)C)N1C(=O)[C@@H]2CCCN2C(=O)[C@@H]1C3 [FUMITREMORGIN]
- IC50 (Trypanosoma cruzi): 9.6 µM
- IC50 (Plasmodium falciparum): 2.3 µM
